From US8450317B2, “CXCR3 receptor antagonists” (Boehringer Ingelheim International GmbH, priority 2009, dated 2013) come the findings set out here.

Read-outs that look alike come from different tables or passages of the source.

The experiment has as its target CXCR3 (Macaca fascicularis, UniProt A0A2K5UV19). As to the kind of experiment: functional cellular assay measuring calcium flux in CXCR3 transfected cells (block of CXCR3/IP-10 interaction). In kind it is cell-based, Cyno. The procedure:
Compounds are assessed for the ability to block the interaction of CXCR3 and IP-10 in a functional cellular assay measuring calcium flux in CXCR3 transfected cells.
Cyno-CHO cells, stably expressing recombinant CXCR3 and G-alpha-16 are grown in F12 medium (Mediatech #45000-360) supplemented with 10% (V/V) FBS (Mediatech #35-01500), 1% Geneticin (Invitrogen #10131-027) and 0.2% Zeocin (Invitrogen #R250-05). The cells are spun down and re-suspended in growth media to a concentration of […]. 25 microL of cell suspension is added to each well of a BD-384-well TC treated plate, providing 12,000 cells/well. The plate is incubated at 37° C./5% CO2 overnight. On the day of the assay, the plates are removed, the media is flicked out and 25 microL of Ca-4 dye in assay buffer (HBSS, 10 mM HEPES ph 7.4), containing 2 mM probenacid is added to each well. The cell assay plates are then incubated at 37° C./5% CO2 for one hour.
Test compounds are dissolved in DMSO and diluted to 1.045 mM in DMSO. Just prior to assay, 2.75 microL of appropriately diluted test compound are added to each well of a 384 well plate containing 45 microL of HBSS buffer. After mixing, 5 microL of diluted compound are added to each well of the cell assay plate for a final assay concentration of 10 microM. The plate is incubated at room temperature for 15 min. 10 microL of IP-10 stock solution in HBSS (4× EC80 concentration) are added to each well of the cell assay plate except those cells reserved as blank wells containing buffer only. Intracellular calcium flux is recorded on the HAMAMTSU FDSS6000, using excitation at 480 nm and emission at 540 nm. Data are analyzed using Activity Base software.
In general, the preferred potency range (IC50) of compounds in the above assay is between 1 nM to 3 μM, and the most preferred potency range is 1 nM to 200 nM.

[1] abbreviates: IP-10 induced intracellular calcium flux, Cyno-CHO cells stably expressing recombinant CXCR3 and G-alpha-16, IP-10 at EC80, read-out: IC50.

Chain of CXCR3 (A0A2K5UV19 entry or part of it): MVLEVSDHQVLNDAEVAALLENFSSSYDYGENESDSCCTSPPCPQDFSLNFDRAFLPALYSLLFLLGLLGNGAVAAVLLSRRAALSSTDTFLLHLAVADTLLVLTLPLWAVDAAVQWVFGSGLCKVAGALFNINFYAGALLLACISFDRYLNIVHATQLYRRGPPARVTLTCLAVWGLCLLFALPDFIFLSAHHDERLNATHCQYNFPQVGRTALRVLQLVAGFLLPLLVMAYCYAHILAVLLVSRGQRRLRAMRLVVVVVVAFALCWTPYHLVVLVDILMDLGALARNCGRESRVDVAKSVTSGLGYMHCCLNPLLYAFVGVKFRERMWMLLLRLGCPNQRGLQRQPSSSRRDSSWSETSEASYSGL

`Cc1cc(C)n(CC(=O)N2CCN(c3ccccc3-c3ccc(C#N)cc3)CC2)n1` [2′-{4-[2-(3,5-Dimethyl-pyrazol-1-yl)-acetyl]-piperazin-1-yl}-biphenyl-4-carbonitrile]: the IC50 – broadly, the concentration needed to halve the response being measured – under setting [1] stood at 100 nM.
As to `Cc1cc(C)n(CC(=O)N2CCN(c3ccccc3-c3cnc(N4CCCC(F)C4)nc3)CC2)n1` (centres unmarked) [2-(3,5-Dimethyl-pyrazol-1-yl)-1-(4-{2-[2-(3-fluoro-piperidin-1-yl)-pyrimidin-5-yl]-phenyl}-piperazin-1-yl)-ethanone], the IC50 under setting [1] is 8 nM.
`O=C(Cn1ccc2cccnc21)N1CCN(c2ccc(F)cc2-c2cnc(N3CCCC3)nc2)CC1` [1-(4-{4-fluoro-2-[2-(pyrrolidin-1-yl)pyrimidin-5-yl]phenyl}piperazin-1-yl)-2-(1H-pyrrolo[2,3-b]pyridin-1-yl)ethanone]: the IC50 under setting [1] amounted to 15 nM.
Turning to `CS(=O)(=O)C1CCN(c2ncc(-c3cc(F)ccc3N3CCN(C(=O)Cn4c(=O)[nH]c5ccccc54)CC3)cn2)CC1` [1-{2-[4-(4-fluoro-2-{2-[4-(methylsulfonyl)piperidin-1-yl]pyrimidin-5-yl}phenyl)piperazin-1-yl]-2-oxoethyl}-1,3-dihydro-2H-benzimidazol-2-one], the IC50 under setting [1] was 7 nM.
With `Cc1cc(C)n(CC(=O)N2CCN(c3ccccc3-c3cnc(N4CCC(O)CC4)nc3)CC2)n1` [2-(3,5-Dimethyl-pyrazol-1-yl)-1-(4-{2-[2-(4-hydroxy-piperidin-1-yl)-pyrimidin-5-yl]-phenyl}-piperazin-1-yl)-ethanone], under setting [1], the IC50 was 7 nM.
With `COc1ncc(-c2cc(F)ccc2N2CCN(C(=O)Cn3ccc4ccncc43)CC2)cn1` [1-{4-[4-fluoro-2-(2-methoxypyrimidin-5-yl)phenyl]piperazin-1-yl}-2-(1H-pyrrolo[2,3-c]pyridin-1-yl)ethanone], the concentration for half-maximal inhibition (IC50) under setting [1] stood at 13 nM.
On to `COc1ncc(-c2ccccc2N2CCN(C(=O)Cn3cc4ccccc4n3)CC2)cn1` [2-Indazol-2-yl-1-{4-[2-(2-methoxy-pyrimidin-5-yl)-phenyl]-piperazin-1-yl}-ethanone], for which the IC50 under setting [1] turned out to be 28 nM.
On to `COc1ccc(-c2ccccc2N2CCN(C(=O)Cn3nc(C)cc3C)CC2)cn1` [2-(3,5-Dimethyl-pyrazol-1-yl)-1-{4-[2-(6-methoxy-pyridin-3-yl)-phenyl]-piperazin-1-yl}-ethanone], for which the IC50 under setting [1] was 58 nM.
`Cc1cc(C)n(CC(=O)N2CCN(c3ccccc3-c3cnc(N4CCC(F)(F)CC4)nc3)CC2)n1` [1-(4-{2-[2-(4,4-Difluoro-piperidin-1-yl)-pyrimidin-5-yl]-phenyl}-piperazin-1-yl)-2-(3,5-dimethyl-pyrazol-1-yl)-ethanone]: the IC50 under setting [1] came out at 22 nM.
Turning to `CC1CN(c2ccccc2-c2cnc(N3CCC(O)CC3)nc2)CCN1C(=O)Cn1cnc2cccnc21` (centres unmarked) [1-(4-{2-[2-(4-hydroxypiperidin-1-yl)pyrimidin-5-yl]phenyl}-2-methylpiperazin-1-yl)-2-(3H-imidazo[4,5-b]pyridin-3-yl)ethanone], the IC50 under setting [1] is 11 nM.
On the same count and under the same terms, the result for `COc1cc(NC(=O)c2cc(F)ccc2N2CCN(C(=O)CN3Cc4ccccc4C3=O)[C@@H](C)C2)ccn1` [5-fluoro-N-(2-methoxypyridin-4-yl)-2-{(3S)-3-methyl-4-[(1-oxo-1,3-dihydro-2H-isoindol-2-yl)acetyl]piperazin-1-yl}benzamide] reads 13 nM; that for `Cc1cc(C)n(CC(=O)N2CCN(c3ccccc3-c3cnc(N4CC(C)CC(C)C4)nc3)CC2)n1` (centres unmarked) [1-(4-{2-[2-(3,5-Dimethyl-piperidin-1-yl)-pyrimidin-5-yl]-phenyl}-piperazin-1-yl)-2-(3,5-dimethyl-pyrazol-1-yl)-ethanone], 14 nM.
On to `Cc1cc(C)n(CC(=O)N2CCN(c3ccccc3-c3ccc4cc[nH]c4c3)CC2)n1` [2-(3,5-Dimethyl-pyrazol-1-yl)-1-{4-[2-(1H-indol-6-yl)-phenyl]-piperazin-1-yl}-ethanone], for which the IC50 under setting [1] is 81 nM.
Turning to `COc1ncc(-c2ccccc2N2CC3CCC(C2)N3C(=O)Cn2ccc3cccnc32)cn1` [1-{3-[2-(2-Methoxy-pyrimidin-5-yl)-phenyl]-3,8-diaza-bicyclo[3.2.1]oct-8-yl}-2-pyrrolo[2,3-b]pyridin-1-yl-ethanone], the IC50 stood at 7 nM.
Regarding `CCOc1ncc(-c2ccccc2N2CCN(C(=O)Cn3nc(C)cc3C)CC2)cn1` [2-(3,5-Dimethyl-pyrazol-1-yl)-1-{4-[2-(2-ethoxy-pyrimidin-5-yl)-phenyl]-piperazin-1-yl}-ethanone], the IC50 under setting [1] is 18 nM.
As for `CNc1ncc(-c2ccccc2N2CCN(C(=O)Cn3ccc4cccnc43)CC2)cn1` [1-{4-[2-(2-Methylamino-pyrimidin-5-yl)-phenyl]-piperazin-1-yl}-2-pyrrolo[2,3-b]pyridin-1-yl-ethanone], the IC50 under setting [1] stood at 7 nM.
`CN1CCN(c2ncc(-c3cc(F)ccc3N3CCN(C(=O)Cn4c(=O)[nH]c5ccccc54)CC3)cn2)CC1` [1-[2-(4-{4-fluoro-2-[2-(4-methylpiperazin-1-yl)pyrimidin-5-yl]phenyl}piperazin-1-yl)-2-oxoethyl]-1,3-dihydro-2H-benzimidazol-2-one]: under setting [1], the IC50 was determined as 14 nM.
The same measure, in the same setting: to `Cc1cc(C)n(CC(=O)N2CCN(c3ccccc3-c3cnc(N4CCC(C)(C)CC4)nc3)CC2)n1` [1-(4-{2-[2-(4,4-Dimethyl-piperidin-1-yl)-pyrimidin-5-yl]-phenyl}-piperazin-1-yl)-2-(3,5-dimethyl-pyrazol-1-yl)-ethanone] belongs 12 nM.
On to `CC1CN(c2ccccc2-c2cnc(S(C)(=O)=O)nc2)CCN1C(=O)CN1Cc2ccccc2C1=O` (centres unmarked) [2-[2-(2-methyl-4-{2-[2-(methylsulfonyl)pyrimidin-5-yl]phenyl}piperazin-1-yl)-2-oxoethyl]-2,3-dihydro-1H-isoindol-1-one], for which the IC50 under setting [1] worked out at 293 nM.
For `COc1ncc(-c2ccccc2N2CCN(C(=O)Cn3nc(C)cc3C)CC2)cn1` [2-(3,5-Dimethyl-pyrazol-1-yl)-1-{4-[2-(2-methoxy-pyrimidin-5-yl)-phenyl]-piperazin-1-yl}-ethanone], the IC50 under setting [1] is 46 nM.
`Cc1cc(C)n(CC(=O)N2CCN(c3ccc(F)cc3-c3cnc(N4CCOCC4)nc3)CC2)n1` [2-(3,5-Dimethyl-pyrazol-1-yl)-1-{4-[4-fluoro-2-(2-morpholin-4-yl-pyrimidin-5-yl)-phenyl]-piperazin-1-yl}-ethanone]: the IC50 under setting [1] is 5 nM.
Take `CN1CCN(c2ncc(-c3cc(F)ccc3N3CCN(C(=O)CN4CCCCC4=O)CC3)cn2)CC1` [1-[2-(4-{4-fluoro-2-[2-(4-methylpiperazin-1-yl)pyrimidin-5-yl]phenyl}piperazin-1-yl)-2-oxoethyl]piperidin-2-one]: the IC50 under setting [1] amounted to 94 nM.
The same measure, in the same setting: the result for `N#Cc1ccc(N2CCN(C(=O)Cn3ccc4cccnc43)CC2)c(-c2cnc(N3CCOCC3)nc2)c1` [3-(2-Morpholin-4-yl-pyrimidin-5-yl)-4-[4-(2-pyrrolo[2,3-b]pyridin-1-yl-acetyl)-piperazin-1-yl]-benzonitrile] reads 8 nM; that for `Cc1cc(C)n(CC(=O)N2CCN(c3ccc(C(F)(F)F)cc3-c3cnc(N4CCOCC4)nc3)CC2)n1` [2-(3,5-Dimethyl-pyrazol-1-yl)-1-{4-[2-(2-morpholin-4-yl-pyrimidin-5-yl)-4-trifluoromethyl-phenyl]-piperazin-1-yl}-ethanone], 8 nM.
With `COc1ncc(-c2ccccc2N2CCN(C(=O)Cn3ccc4ccccc43)CC2)cn1` [2-Indol-1-yl-1-{4-[2-(2-methoxy-pyrimidin-5-yl)-phenyl]-piperazin-1-yl}-ethanone], under setting [1], the IC50 worked out at 44 nM.
In the case of `COc1ncc(-c2cc(C#N)ccc2N2CCN(C(=O)Cn3nc(C)cc3C)CC2)cn1` [4-{4-[2-(3,5-Dimethyl-pyrazol-1-yl)-acetyl]-piperazin-1-yl}-3-(2-methoxy-pyrimidin-5-yl)-benzonitrile], the IC50 under setting [1] worked out at 150 nM.
As to `CC1CN(c2ccc(C(F)(F)F)cc2-c2cnc(N3CCC(S(C)(=O)=O)CC3)nc2)CCN1C(=O)CN1CCCCC1=O` (centres unmarked) [1-(2-{2-methyl-4-[2-{2-[4-(methylsulfonyl)piperidin-1-yl]pyrimidin-5-yl}-4-(trifluoromethyl)phenyl]piperazin-1-yl}-2-oxoethyl)piperidin-2-one], the IC50 under setting [1] is 11 nM.
Turning to `O=C(Cn1ccc2cccnc21)N1CCN(c2ccccc2N2Cc3ccccc3C2=O)CC1` [2-{2-[4-(2-Pyrrolo[2,3-b]pyridin-1-yl-acetyl)-piperazin-1-yl]-phenyl}-2,3-dihydro-isoindol-1-one], under setting [1], the IC50 is 48 nM.
Take `CC1CN(c2ccc(F)cc2-c2cnc(S(C)(=O)=O)nc2)CCN1C(=O)Cn1c(=O)[nH]c2ccccc21` (centres unmarked) [1-[2-(4-{4-fluoro-2-[2-(methylsulfonyl)pyrimidin-5-yl]phenyl}-2-methylpiperazin-1-yl)-2-oxoethyl]-1,3-dihydro-2H-benzimidazol-2-one]: the IC50 under setting [1] came out at 60 nM.
